Experimental data reported in ChEMBL document CHEMBL4811298, “Discovery of novel class of histone deacetylase inhibitors as potential anticancer agents” (Bioorg Med Chem, 2021).
≈ marks a conversion by molar mass, not a printed value. Calls of active or inactive are those of the source. No cut-off for these calls is given here.

Experiments:
MCF7 [1] = assay: Induction of cell cycle arrest in human MCF7 cells assessed downregulation of RB1 gene expression at 3 uM incubated for 24 hrs by whole transcriptome analysis; format: functional, cell-based
Homo sapiens = species: Homo sapiens; assay: Selectivity ratio of IC50 for inhibition of N-terminal GST-tagged human HDAC7 (518 to end residues) expressed in baculovirus-infected Sf9 cells to IC50 for inhibition of C-terminal FLAG/His-tagged human recombinant HDAC1 (1 to 482 residues) expressed in baculovirus-infected Sf9 cells
MCF7 [2] = assay: Induction of cell cycle arrest in human MCF7 cells assessed as accumulation at subG1 phase at 1 uM incubated for 24 to 72 hrs by PI staining based flow cytometric analysis; format: functional; settings: time 24-72 hrs
[3] = Half life in CD-1 mouse liver microsomes at 1 uM measured after 60 mins in presence of NADPH by LC-MS/MS analysis; format: ADME, Microsome
[4] = Metabolic stability of the compound in CD-1 mouse liver microsomes assessed as parent compound remaining at 1 uM measured after 60 mins in absence of NADPH by LC-MS/MS analysis; format: ADME, Microsome; settings: read-out: Stabilty
MCF7 [5] = assay: Downregulation of SIRT4 gene expression in human MCF7 cells at 3 uM incubated for 24 hrs by whole transcriptome analysis; format: functional, cell-based
[6] = molecular target: Histone deacetylase (Homo sapiens) (UniProt Q13547+O15379+Q9UBN7+Q92769+Q9UQL6+Q8WUI4+Q9BY41+Q96DB2+P56524+Q9UKV0+Q969S8); assay: Inhibition of HDAC in human MCF7 cells assessed as increase in acetylated histone H4 mRNA level at 3 uM incubated for 24 hrs by whole transcriptome analysis; format: cell-based
MCF7 [7] = assay: Downregulation of SIRT2 gene expression in human MCF7 cells at 3 uM incubated for 24 hrs by whole transcriptome analysis; format: functional, cell-based
MCF7 [8] = assay: Induction of apoptosis in human MCF7 cells assessed as reduction in Bcl2 gene expression at 3 uM incubated for 24 hrs by whole transcriptome analysis; format: functional, cell-based
Histone deacetylase 7 = molecular target: T1, Histone deacetylase 7 (Homo sapiens, UniProt Q8WUI4); assay: Inhibition of N-terminal GST-tagged human HDAC7 (518 to end residues) expressed in baculovirus-infected Sf9 cells assessed as reduction in 7-amino-4-methylcoumarin release measured every 5 mins by fluorescence based analysis
T1 sequence (Q8WUI4 whole entry): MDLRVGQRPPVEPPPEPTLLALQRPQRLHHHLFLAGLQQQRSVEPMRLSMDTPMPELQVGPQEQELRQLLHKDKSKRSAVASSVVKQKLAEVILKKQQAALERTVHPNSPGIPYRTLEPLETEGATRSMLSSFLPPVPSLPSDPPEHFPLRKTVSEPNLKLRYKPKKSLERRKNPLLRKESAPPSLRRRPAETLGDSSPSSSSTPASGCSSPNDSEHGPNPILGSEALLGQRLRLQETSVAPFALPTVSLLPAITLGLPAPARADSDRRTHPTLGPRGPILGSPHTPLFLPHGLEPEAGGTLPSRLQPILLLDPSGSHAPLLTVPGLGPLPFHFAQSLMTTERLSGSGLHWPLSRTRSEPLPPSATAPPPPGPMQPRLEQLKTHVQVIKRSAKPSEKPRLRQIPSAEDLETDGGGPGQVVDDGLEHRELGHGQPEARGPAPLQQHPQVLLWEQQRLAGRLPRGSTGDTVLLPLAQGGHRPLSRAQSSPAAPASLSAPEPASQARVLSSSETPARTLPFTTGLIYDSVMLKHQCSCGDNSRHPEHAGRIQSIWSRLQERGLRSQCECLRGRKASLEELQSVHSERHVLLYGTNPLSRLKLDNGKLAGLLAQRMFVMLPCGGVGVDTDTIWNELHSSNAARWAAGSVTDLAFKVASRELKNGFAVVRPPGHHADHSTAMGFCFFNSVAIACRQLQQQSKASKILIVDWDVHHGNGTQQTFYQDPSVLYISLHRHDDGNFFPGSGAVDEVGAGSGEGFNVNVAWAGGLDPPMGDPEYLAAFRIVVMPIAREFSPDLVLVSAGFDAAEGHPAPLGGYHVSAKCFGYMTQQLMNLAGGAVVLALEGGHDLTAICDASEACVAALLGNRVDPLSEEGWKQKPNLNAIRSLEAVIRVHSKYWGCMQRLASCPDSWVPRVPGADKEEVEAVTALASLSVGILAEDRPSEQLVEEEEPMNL

[9] = Downregulation of HDAC1 gene expression in human MCF7 cells at 3 uM incubated for 24 hrs by whole transcriptome analysis relative to control; format: functional
[10] = Half life in human liver microsomes at 1 uM measured after 60 mins in presence of NADPH by LC-MS/MS analysis; format: ADME, Microsome
[11] = Kinetic aqueous solubility of the compound in 2% DMSO/phosphate buffered saline at 200 uM incubated for 90 mins by UV absorbance based analysis; format: physicochemical; settings: read-out: Kinetic_solubility
[12] = Metabolic stability of the compound in human liver microsomes assessed as parent compound remaining at 1 uM measured after 60 mins in absence of NADPH by LC-MS/MS analysis; format: ADME, Microsome; settings: read-out: Stabilty
Histone deacetylase 4 = Histone deacetylase 4 (Homo sapiens, UniProt P56524); assay: Inhibition of N-terminal GST-tagged/C-terminal His-tagged human recombinant HDAC4 (627 to 1084 residues) expressed in baculovirus-infected Sf9 cells assessed as reduction in 7-amino-4-methylcoumarin release measured every 5 mins by fluorescence based analysis
Chain of Histone deacetylase 4 (P56524 whole entry, the tested form may be a part): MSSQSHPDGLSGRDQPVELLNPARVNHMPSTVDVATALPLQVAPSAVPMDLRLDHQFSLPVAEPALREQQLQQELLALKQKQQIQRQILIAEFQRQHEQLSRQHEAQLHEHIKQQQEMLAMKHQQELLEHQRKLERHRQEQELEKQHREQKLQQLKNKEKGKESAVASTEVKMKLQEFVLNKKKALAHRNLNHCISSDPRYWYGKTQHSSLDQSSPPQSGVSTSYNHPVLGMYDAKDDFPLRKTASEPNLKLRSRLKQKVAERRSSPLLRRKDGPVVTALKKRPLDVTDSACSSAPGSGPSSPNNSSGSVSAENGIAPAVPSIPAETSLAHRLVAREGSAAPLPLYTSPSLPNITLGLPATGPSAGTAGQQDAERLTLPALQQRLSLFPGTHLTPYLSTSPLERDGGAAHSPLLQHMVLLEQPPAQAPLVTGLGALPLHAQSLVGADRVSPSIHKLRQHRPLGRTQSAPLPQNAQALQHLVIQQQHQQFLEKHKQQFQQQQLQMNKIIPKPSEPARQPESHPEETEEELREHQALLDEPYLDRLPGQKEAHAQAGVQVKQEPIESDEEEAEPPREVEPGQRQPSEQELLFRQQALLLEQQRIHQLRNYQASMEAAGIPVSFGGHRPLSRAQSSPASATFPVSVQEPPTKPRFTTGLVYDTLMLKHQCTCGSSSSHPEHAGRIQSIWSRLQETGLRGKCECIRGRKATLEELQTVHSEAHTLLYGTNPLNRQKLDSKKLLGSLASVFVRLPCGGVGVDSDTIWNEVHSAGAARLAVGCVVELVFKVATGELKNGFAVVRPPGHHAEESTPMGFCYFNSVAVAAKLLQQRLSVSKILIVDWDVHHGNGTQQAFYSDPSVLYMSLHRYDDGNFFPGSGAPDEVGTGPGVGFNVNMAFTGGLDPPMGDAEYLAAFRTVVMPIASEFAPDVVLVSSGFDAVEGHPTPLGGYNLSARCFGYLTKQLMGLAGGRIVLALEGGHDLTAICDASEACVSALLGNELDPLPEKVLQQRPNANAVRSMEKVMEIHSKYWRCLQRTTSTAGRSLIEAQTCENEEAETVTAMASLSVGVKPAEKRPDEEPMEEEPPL

N=C(NO)c1ccc2nc(-c3cccc(-c4cn5ccccc5n4)c3)[nH]c2c1
Activity (MCF7 [1]): Active
Ratio IC50 (Homo sapiens): > 44
Activity (MCF7 [2]): Active
half-life at 1 µM [3]: 17.6 min
remaining at 1 h, 1 µM [4]: 94%
inhibition (MCF7 [5]): Active
inhibition [6]: Active
inhibition (MCF7 [7]): Active
Activity (MCF7 [8]): Active
IC50 (Histone deacetylase 7): > 10 µM
fold change (FC) [9]: 3.2
half-life at 1 µM [10]: 7.1 min
solubility kinetic at 1.5 h, 200 µM [11]: 36.1 µM (≈ 13.3 µg/mL)
remaining at 1 h, 1 µM [12]: 99%
IC50 (Histone deacetylase 4): > 10 µM
